Experimental data reported in publication PMC2770570 (BMC Cancer, 2009).

Columns and labels:
Assay type in all cases: cell-based, human
OGFr mRNA = experiment: Northern blot analysis of OGFr after siRNA transfection of KAT-18 cells; details: 20 nM siRNA; OGFr/GAPDH ratio by densitometry (Fig. 4A)
Protocol: (§1) The OGFr-targeted siRNAs (antisense:5'-[…]-3'; sense: 5'-[…]-3') were designed and obtained as ready-annealed, purified duplex probes from Ambion (Austin, TX). For transfection, 5 × 10^4 KAT-18 cells per well were seeded in 6-well plates containing 1 ml of serum-containing media without antibiotics. In each well, 20 nM OGFr-siRNA or control siRNA solutions in serum-free media were added. […] At 72 h cells were collected for computing growth. Two independent experiments were conducted. The scrambled siRNAs were purchased from Ambion.
Some cultures were transfected with siRNAs and then harvested 72 h later for Northern analysis. Total RNA was extracted using the Paris Kit (Ambion), separated on an agarose gel, and mRNA transferred to nylon membrane (Immobilon, Bio-Rad Laboratories, Hercules, CA). Membranes were probed with ^32P-dCTP- OGFr cDNA. To determine equal loading, blots were stripped and reprobed with radiolabeled GAPDH and optical density of each band was determined by densitometry and analyzed by QuickOne (Bio-Rad Laboratories). Each value was normalized to GAPDH from the same blot.

OGFr protein = experiment: Semi-quantitative immunocytochemistry of OGFr protein after siRNA transfection of KAT-18 cells; details: 72 h after transfection; mean staining intensity, approximately 50 cells/group (Fig. 4B)
Protocol: as §1
KAT-18 cells were seeded onto coverglasses, transiently transfected with OGFr-siRNA, and 72 h later stained with polyclonal antibodies to OGFr in order to detect the level of protein knockdown. OGFr protein levels were assessed by semi-quantitative immunocytochemistry whereby images were taken at the same exposure time with special care not to photobleach samples. The mean intensity of staining was determined for approximately 50 cells/group.

KAT-18 cells = experiment: Growth of KAT-18 cells transfected with OGFr siRNA or scrambled siRNA
Protocol: as §1

## antisense:5'-uagaaacucagguuuggcg-3'; sense: 5'-cgccaaaccugaguuucua-3' (sense CGCCAAACCUGAGUUUCUA; antisense UAGAAACUCAGGUUUGGCG; chemistry not fully specified) [OGFr siRNA, OGFr-targeted siRNAs, ready-annealed, purified duplex probes from Ambion]
OGFr mRNA
  OGFr level relative to cells treated with vehicle only: less than 25%
OGFr protein
  decrease in OGFr protein expression relative to untransfected and scrambled siRNA cells: 47%
KAT-18 cells; 20 nM siRNA, 72 h (Fig. 4C)
  increase in cell number vs vehicle only and scrambled siRNA: approximately 70%
KAT-18 cells; KAT-18 cells
  effectiveness of OGFr siRNA knockdown in increasing cell number relative to NTX: over twice as effective
